A value given as a limit tells only on which side of the number the result lay.

The molecule `COc1cc(Nc2c(C#N)cnc3cc(-c4csc(CN5CCOCC5)c4)ccc23)c(Cl)cc1C` displayed a melting point of 168 to 170 °C.

In the case of `CCOC(=O)CCC(=O)c1ccc(CCCCN2CCN(c3cccc(C)c3)CC2)cc1`, the melting point fell in the range of 62 to 63 °C.

`Cc1nnc2n1-c1sc(C#CCn3c(=O)c4ccccc4c4ccccc43)cc1C(c1ccccc1Cl)=NC2` displayed a melting point of 247 to 249 °C.

As for `COc1ccc(CCCCCCCC(=O)O)cc1`, the melting point was in the range of 42 to 43 °C.

Molecule `CC1Cn2c(nc3c(c2=O)CCCC3)-c2[nH]c3ccccc3c21` (configuration not stated) yielded a melting point of 220 to 221 °C.

`COc1ccc(Oc2ccc(C(=O)N(C(C)C)C3CCCCC3)cc2)cc1OC` came in with a melting point of 107 °C.

As to `COc1ccc(NC(=O)c2ccc(Br)s2)cc1N1CCN(C)CC1`, the melting point was in the range of 114 to 115 °C.

Turning to `N#CCCn1c(=O)n(C2CCN(CCNC(=O)c3ccc(F)cc3)CC2)c2ccccc21`, the melting point is 172 °C.

`CCN(CCOc1ccc(Cl)c2[nH]cc(Cl)c12)c1ccsc1` came in with a melting point of 123 to 125 °C.

`COC(=O)C(c1ccccc1)C(c1ccc(OC)cc1)n1cncn1` (configuration not stated) displayed a melting point of 159 to 161 °C.

The molecule `Cc1ccccc1C(F)(F)C(F)(F)c1ccccc1C` yielded a melting point of 71.5 to 73.5 °C.

For the molecule `Cc1ccc2oc(=O)c(C(=O)Oc3cc(Cl)ccc3Cl)cc2c1`, the melting point was in the range of 175 to 179 °C.

The molecule `COC(=O)c1ccc(C(OC(C)=O)OC(C)=O)cc1` returned a melting point of 64 to 67 °C.

In turn, `Cc1cc(C)c(C(=O)Nc2ccc(-n3nc(C(F)(F)F)cc3C(F)(F)F)cc2)c(C)c1` returned a melting point of 203 to 205 °C.

Regarding `COc1cc(C=CC2=CC(=O)C(C)(C)O2)cc(OC)c1OC`, the melting point was 149 to 150 °C.

For `Cc1ccccc1-n1c(-c2sc(Nc3ccc(Cl)cc3)nc2-c2ccccc2)nc2ccccc2c1=O`, the melting point is > 275 °C.

Take `Cc1c(C(=O)OC(C)(C)C)nn(-c2ccc(Cl)cc2Cl)c1-c1ccc(Cl)cc1`: the melting point was 112 °C.

`O=C(Nc1cccc(C2CN3CCSC3=N2)c1)c1ccc(Br)nc1` (configuration not stated) came in with a melting point of 149 to 153 °C.

Molecule `OC(Cc1ccccc1)(Cn1cncn1)c1ccccc1` (configuration not stated) had a melting point of 134 °C.

Molecule `Oc1ccccc1C=Cc1cccc2[nH]ccc12` registered a melting point of 140 °C.

Consider `COc1ccc(CCC(=NNc2ccc(C3=NNC(=O)CC3C)cc2)c2ccc(O)cc2O)cc1OC` (configuration not stated), for which the melting point lay in the range of 135 to 140 °C.

Molecule `COc1ccnc2c1C(=O)CC(c1ccccc1Cl)C2` (configuration not stated) yielded a melting point of 116 to 117 °C.

`CS(=O)(=O)N(c1ccc(C(=O)NC2CCN(C3CCCCC3)C2)cc1)S(C)(=O)=O` (configuration not stated) showed a melting point of 176 to 178 °C.

The molecule `CC(=O)NCC1CN(c2ccc(N3CCN(c4nc5cccc(F)c5o4)CC3)c(F)c2)C(=O)O1` (configuration not stated) had a melting point of 201 to 202 °C.

Molecule `CN1C(=O)C(=O)c2cc(I)ccc21` gave a melting point of 160 to 162 °C.

In turn, `CCCCNC(=O)Nc1ccc(OC)cc1C(=O)NCC1CCN(C(c2ccccc2)c2ccccc2)CC1` came in with a melting point of 206 to 208 °C.

`[N-]=[N+]=NCC1Cc2c[nH]c3cccc(c23)C(=O)N1` (configuration not stated): the melting point fell in the range of 152 to 153 °C.

Molecule `Fc1cc(Cn2cncn2)cc2c1Cc1c(-c3ccsc3)n[nH]c1-2` yielded a melting point of 236 to 239 °C.

As to `Cc1oc2c(C(O)CO)cccc2c1C` (configuration not stated), the melting point is 93 to 95 °C.

Turning to `Clc1ccc(Cn2c(-c3ccccn3)nc3ccccc32)cc1Cl`, the melting point was 227 to 229 °C.

As for `CC(=O)OCC1OC(c2ccc(F)c(Cc3cccs3)c2)C(OC(C)=O)C(OC(C)=O)C1OC(C)=O` (configuration not stated), the melting point was 119 to 121 °C.

The molecule `C=C(C)c1cnc(C2=NC(C)(C(C)C)C(=O)N2)c(C(=O)OC)c1` (configuration not stated) registered a melting point of 90.5 to 92.5 °C.

Take `CSc1c(O[C@H]2CC[C@H](N)CC2)ccc2[nH]ncc12`: the melting point lay in the range of 138 to 140 °C.

On to `CCCCS(=O)(=O)N1C(SCc2ccc(OC)cc2)=NC(C)(c2cccc([N+](=O)[O-])c2)C(C)(C(=O)OCC)C1c1cccc([N+](=O)[O-])c1` (configuration not stated), for which the melting point lay within 66 to 68 °C.

In turn, `CCNC(=O)[C@H](C)C[C@H](O)[C@H](CC1CCCCC1)NC(=O)[C@H](Cc1cscn1)NC(=O)OC(C)(C)C` came in with a melting point of 179 to 181 °C.

The molecule `COc1ccc(N=Nc2ccc(O)c(C(=O)Nc3ccc(OC)c(-c4n[nH]c5cc(C)nn45)c3)c2)cc1` came in with a melting point of 295 to 296 °C.

For the molecule `CN(C)CCNc1ccc(NCCCCC(=O)NOCc2ccccc2)c2c1C(=O)c1ccccc1C2=O`, the melting point fell in the range of 146 to 148 °C.

`Cc1nc2ccccc2n(-c2ccc(N)cc2)c1=O` showed a melting point of 269 to 271 °C.

`Cc1ccccc1C(=O)Nc1ccc(C(=O)N2Cc3cccn3Cc3ccccc32)cc1Cl` showed a melting point of 176 to 178 °C.

In the case of `CNC(=O)c1c(N)cccc1OC`, the melting point was 186 to 189 °C.

In the case of `Oc1ccnc(Nc2cccc(Cl)c2)n1`, the melting point is 250 to 252 °C.

In turn, `CC(C)Cn1c(CCCCNC(=O)Nc2ccccc2)nc2c(N)nc3ccccc3c21` had a melting point of 113 to 115 °C.

On to `CCCN(CCC)CC(=O)Nc1ncc(Oc2cc(I)c(OC)cc2C(C)C)c(N)n1`, for which the melting point fell in the range of 129 to 131 °C.

On to `CCOCCOc1cccc(-c2ccc3c(c2)C=C(C(=O)Nc2ccc(CN(C)C4CCOCC4)cc2)CCS3(=O)=O)c1`, for which the melting point lay within 180 to 182 °C.

Take `NC(=O)NCc1ccc2c(c1)OCO2`: the melting point lay within 183 to 184 °C.

`CNC(=O)c1cc2c(nc(C)n2C)c2c1CCC(c1ccccc1)N2` (configuration not stated) had a melting point of 259 °C.

Take `CCN1C(=O)COc2ccc(-c3nn[nH]c3-c3cccc(C)n3)cc21`: the melting point was 187 °C.

`Cc1nn(C)c(C#N)c1[N+](=O)[O-]` showed a melting point of 96 to 98 °C.

Regarding `Cc1cc(F)ccc1-c1nc(NC2CCCCC2)nc2c1CCC(=O)N2c1ccccc1F`, the melting point was 181 to 182 °C.

Molecule `CCc1c2cccccc-2[nH]c1=O` registered a melting point of 166 to 171 °C.

On to `COC(=O)c1ccc(CNS(C)(=O)=O)cc1N`, for which the melting point fell in the range of 120 to 121 °C.

Regarding `C=CCOc1cn(C)c2cc(F)ccc2c1=O`, the melting point was in the range of 158 to 159 °C.

`CN(CC(=O)NC1(c2ccccc2Cl)C(=O)Nc2ccc(Cl)cc21)CC(=O)OC(C)(C)C` (configuration not stated) came in with a melting point of 200 °C.

Turning to `CC(C)(C)OC(=O)N[C@@H](Cc1ccccn1)C(=O)NCC(=O)c1ccc(-c2ccccc2)cc1`, the melting point is 129 to 132 °C.

On to `O=C(CCc1ccc(Cl)cc1Cl)NC1N=C(C2CC2)c2ccccc2N(CC(F)(F)F)C1=O` (single isomer, unassigned; (+)), for which the melting point fell in the range of 64 to 66 °C.

Turning to `COc1nnc(C)c(-c2ccc(SC)cn2)c1-c1ncc(Cl)cc1Cl`, the melting point is 147 to 149 °C.

With `CCOCCOC(=O)C(=O)Nc1nc(-c2c(C)cc(C)cc2C)cs1`, the melting point is 124 to 125 °C.

`CCCCC1c2cc(NC(=O)CC(C)(C)C)c(C)c(C)c2OC1(C)C` (configuration not stated) displayed a melting point of 129 to 130 °C.

Molecule `c1cc(Oc2cnccn2)c2cc[nH]c2c1` had a melting point of 192 to 193 °C.

As for `CC(=O)N1CCCSC1=C[N+](=O)[O-]`, the melting point was 91 to 92.5 °C.

As for `COC(=O)c1cccc(-c2nc(C(N)=O)c3[nH]c(=O)n(-c4ccccc4OC)c3n2)c1`, the melting point was in the range of 265 to 266 °C.

The molecule `CCCCN(C)C(=O)CS(=O)CCCCCCOc1ccc(C2=C(c3ccccc3)CCCc3cc(O)ccc32)cc1` (configuration not stated) showed a melting point of 72 to 73 °C.

Turning to `NS(=O)(=O)c1ccc(-c2[nH]c3ccc(F)cc3c2-c2ccccc2)cc1`, the melting point lay in the range of 302 to 304 °C.

Regarding `COC(=O)CCC(=O)c1ccc(Br)cc1`, the melting point fell in the range of 49 to 51 °C.

For `CC1(C)CC(=O)C2C3CCCOC3C2(C)C1` (configuration not stated), the melting point lay in the range of 111 to 112 °C.

In turn, `COc1cc(OC(C)(C)C(=O)O)c(-c2cccs2)cc1C=CC(=O)c1ccc(C(=O)O)cc1` displayed a melting point of 135 to 137 °C.

Regarding `CCn1nc(C)c2c1C(=NC#N)NCC(c1ccc(O)cc1)=N2`, the melting point turned out to be 300 °C.

For `O=c1c2c(Cc3ccccc3OC(F)(F)F)n[nH]c2c2cccnc2n1-c1cccc(OC(F)(F)F)c1`, the melting point lay in the range of 233 to 236 °C.

The molecule `Clc1ccccc1COc1c(Cl)cc(OCC=C(Br)Br)cc1Cl` returned a melting point of 83.5 °C.

The molecule `COc1cc(-c2n[nH]c3c2Cc2ccccc2-3)cc(OC)c1OC` came in with a melting point of 185 to 187 °C.

In turn, `OCc1ccccc1-c1ccc(CBr)cc1` gave a melting point of 101 to 106 °C.

Molecule `Clc1ncccc1-c1nnsc1-c1cccnc1Cl` gave a melting point of 146 to 148 °C.

`COC(=O)Nc1ccc(NC(=O)CN(C)C)c([N+](=O)[O-])c1` showed a melting point of 186 to 189 °C.

Turning to `CCCc1nc2c(N)nc3cc(OCCCNC(=O)NS(=O)(=O)c4ccc(F)cc4)ccc3c2n1CC(C)C`, the melting point fell in the range of 194 to 198 °C.

The molecule `CCCSc1sc(C(N)=O)c2c1-c1nn(S(C)(=O)=O)cc1CC2` had a melting point of 191 to 192 °C.

In turn, `CNC(C)CN1CCc2c(c(=O)oc3cc(OC)c(OC)cc23)C1` (configuration not stated) had a melting point of 137 to 139 °C.

On to `CC(=O)Nc1cc(C(=O)OC2OC(COC(=O)c3ccccc3)C(OC3OC4COC(c5ccncc5)OC4C(O)C3O)C(O)C2O)ccc1Cl` (configuration not stated), for which the melting point fell in the range of 260 to 262 °C.

`CCCNC(=O)NS(=O)(=O)c1ccccc1Br`: the melting point lay in the range of 218 to 219 °C.

As to `Cc1n[nH]c(Cn2ccnc2C)c1Oc1cc(Cl)cc(C#N)c1`, the melting point was in the range of 212 to 214 °C.

The molecule `Cc1cc(Cl)c(OCCO)cc1Nc1nnc2n1[C@H](c1ccc(F)cc1)COC2` registered a melting point of 161 to 162 °C.

In the case of `O=C(Cl)c1cnoc1-c1ccc(Cl)cc1Cl`, the melting point lay in the range of 46 to 50 °C.

`CS(=O)(=O)c1ccc(C2=C(c3ccc(-c4cscn4)cc3)C(=O)OC2)cc1F` registered a melting point of 218 °C.

In the case of `CS(=O)(=O)c1cc([N+](=O)[O-])ccc1OC(F)(F)F`, the melting point lay within 102 to 104 °C.

The molecule `CN1C2CCC1CN(c1ccc3cc([N+](=O)[O-])ccc3n1)C2` gave a melting point of 152 to 154 °C.

Molecule `CCCCCN1C(=O)C(=O)c2ccccc21` came in with a melting point of 50 to 51 °C.

`CC(C=O)Cc1cc(C(C)(C)C)c(O)c(C(C)(C)C)c1` (configuration not stated) registered a melting point of 162 to 164 °C.

`CCC(=O)c1sc(SC)c2c1CCc1cnn(C)c1-2` displayed a melting point of 119 to 120 °C.

What is called melting point is the temperature of the solid-liquid transition.
